How the values were obtained:
[1] = tested on: pepper phytophthora blight; experiment: Field efficacy experiment against the pepper phytophthora blight (Haikou, Hainan); assay type: in vivo, phytophthora capsici; details: two foliar sprays 7 days apart, field peppers
Experimental: Test site is Haikou in Hainan. […] Four plots are treated per pesticide and replicates. Each plot has surface area of 20 square meters. The pesticides are applied in the early occurrence of disease and are uniformly sprayed onto the leaves until dripping for the first time. Clean water is used as the blank control. Seven days later, the pesticides are applied for the second time. Disease incidence of the pepper phytophthora blights to the peppers prior to the first pesticide application and that of after 15 days from the second pesticide application are surveyed. Each plot uses a five-point sampling means, surveying two per point, and recording the number of diseased plants, dead plants and apparent withered plants. Disease index and control effect are calculated for each treatment.
Classification method (according to symptom types):
0 level: health, no disease;
1 level: lesions happen only to overground leaves and fruitst;
3 level: brown rot spots happen to overground stems and branches;
5 level: brown rot spots happen to the stem base;
7 level: brown rot spots happen to overground stems, branches and stem base, and some dead branches;
9 level: entire plant dead.
Efficacy calculation method:
Disease index=[Σ(plant quantity in each level×respective level number)×100]/(Total quantity of tested plants×9). […]

[2] = tested on: pepper phytophthora capsici; experiment: Indoor toxicity test on potted pepper seedlings inoculated with pepper phytophthora capsici (NY/T1156.11-2008); assay type: in vivo; details: single active compound, survey 8 days after inoculation
Experimental: The pepper phytophthora capsici is acted as test object.
Test methods: referring to the “Republic of China agricultural industry standard NY/T1156.11-2008”, selecting growing consensus potted pepper seedlings, selecting five pots per test object with respective number for use, spraying five milliliters for each pot by a Potter spray tower in a pressure of 50 PSI. The test results are shown in Tables 1 and 2 and each test pesticide is provided with five concentration gradients. After 24 hours, five millimeters pepper phytophthora capsici mycelium blocks are inoculated into the objects. Pepper seedlings with an equal amount of water spraying are selected as the blank control. After inoculation, pepper seedlings are shifted into light moisturizer cabinets for culture. After 8 days, in accordance with grading standards of incidence of pepper phytophthora blights, the disease indexes are surveyed and the control effects are calculated.
Capsici disease classification criteria:
0 level: no lesion on the leaves;
1 level: lesion area of the total leaf area is 5% or less;
3 level: lesion area of the total leaf area is from 6% to 10%;
5 level: lesion area of the total leaf area is from 11% to 25%;
7 level: lesion area of the total leaf area is from 25% to 50%;
9 level: lesion area of the total leaf area is 50% or more.
Disease index=[Σ(leaf quantity in each level×respective level number)×100]/(Total quantity of tested leaves×9).
Control effect (%)=[(blank disease index−treated disease index)]×100]/blank disease index.
Expected effect of a mixture of the active ingredients (i.e., control effect in theory, %) is determined by using Colby's formula and is compared with observed effect:
Colby formula: E=X+Y−X*Y/100
E: expected effect of the composition provided that active ingredient A thereof is in a concentration of a value, and active ingredient B is in a concentration of b value.
X: expected effect provided that usage dose of the active ingredient A is a value.
Y: expected effect provided that usage dose of the active ingredient B is b value.
It is testified that the mixture has a synergistic effect when the actual control effect observed exceeds the expected control effect.

| Compound | Control effects ([1]; 20 g a.i./ha) [%] | Actual effect (control effect) ([2]; 1 ppm in spraying droplet) [%] | Actual effect (control effect) ([2]; 10 ppm in spraying droplet) [%] | Actual effect (control effect) ([2]; 30 ppm in spraying droplet) [%] | Actual effect (control effect) ([2]; 50 ppm in spraying droplet) [%] | Actual effect (control effect) ([2]; 100 ppm in spraying droplet) [%] | Control effects ([1]; 250 g a.i./ha) [%] | Actual effect (control effect) ([2]; 20 ppm in spraying droplet) [%] |
| --- | --- | --- | --- | --- | --- | --- | --- | --- |
| C=CCc1ccc(O)c(OC)c1 [Eugenol, 4-allyl-2-methoxy-phenol] | 71.6 | 6.2 | 17.6 | 46.3 | 63.8 | 79.5 | – | – |
| O=[N+]([O-])c1cc(C(F)(F)F)c(Cl)c([N+](=O)[O-])c1Nc1ncc(C(F)(F)F)cc1Cl [Fluazinam, 3-chloro-N-(3-chloro-5-trifluoromethyl-2-pyridyl)-α,α,α-trifluor-2,6-dinitro-p-toluidine] | – | 11.4 | 31.2 | – | 71.4 | 87.1 | 78.7 | 52.9 |

— US20150351394A1, “BACTERICIDAL COMPOSITION CONTAINING FLUAZINAM” (Shenzhen Noposion Agrochemicals Co., Ltd., priority 2014, published 2015)
